Residues, ends and D or L forms follow the SMILES beside them. Bounds are passed on as bounds.

A short description of this data set: Method for Testing Solubilization: time required for completely dissolving crushed α-APM sample in water. Particulars: 26±2° C.; for time required for completely dissolving the sample (solubilization test): 250 mg crushed sample in 250 ml purified water, magnetic stirrer 350-360 rpm, stirring and standing alternated every 30 seconds; for Solubilization (minutes), Table 1: 250 mg in 250 ml purified water, stirring/standing every 30 seconds. Type of data set: physicochemical. As for the experimental part:
Crushed α-APM sample (250 mg) is poured into 250 ml of purified water at 26±2° C. with stirring by a magnetic stirrer at 350- 360 rpm. Stirring and standing are alternately repeated for every 30 seconds and the time required for completely dissolving the sample is measured.

`COC(=O)[C@H](Cc1ccccc1)NC(=O)[C@@H](N)CC(=O)O` [Example 1, α-L-aspartyl-L-phenylalanine methyl ester] (H-Asp-Phe-OMe): the “time required for completely dissolving the sample (solubilization test)” value (from here on “time required”) is at most 5 min.

In the case of `COC(=O)[C@H](Cc1ccccc1)NC(=O)[C@@H](N)CC(=O)O` [Example 2, α-L-aspartyl-L-phenylalanine methyl ester] (H-Asp-Phe-OMe), the “time required” value was at most 5 min.

Regarding `COC(=O)[C@H](Cc1ccccc1)NC(=O)[C@@H](N)CC(=O)O` [Example 3, α-L-aspartyl-L-phenylalanine methyl ester] (H-Asp-Phe-OMe), the “time required” value was at most 5 min.

For the compound `COC(=O)[C@H](Cc1ccccc1)NC(=O)[C@@H](N)CC(=O)O` [Example 4, α-L-aspartyl-L-phenylalanine methyl ester] (H-Asp-Phe-OMe), the “time required” value is at most 5 min.

In the case of `COC(=O)[C@H](Cc1ccccc1)NC(=O)[C@@H](N)CC(=O)O` [Example 5, α-L-aspartyl-L-phenylalanine methyl ester] (H-Asp-Phe-OMe), the “Solubilization (minutes), Table 1” value (listed as Ex. 5) is 6.5 min.

With `COC(=O)[C@H](Cc1ccccc1)NC(=O)[C@@H](N)CC(=O)O` [Example 6, α-L-aspartyl-L-phenylalanine methyl ester] (H-Asp-Phe-OMe), the “Solubilization (minutes), Table 1” value (listed as Ex. 6) is 6.5 min.

Regarding `COC(=O)[C@H](Cc1ccccc1)NC(=O)[C@@H](N)CC(=O)O` [Example 7, α-L-aspartyl-L-phenylalanine methyl ester] (H-Asp-Phe-OMe), the “Solubilization (minutes), Table 1” value (listed as Ex. 7) was determined as 4.5 min.

For the compound `COC(=O)[C@H](Cc1ccccc1)NC(=O)[C@@H](N)CC(=O)O` [Example 8, α-L-aspartyl-L-phenylalanine methyl ester] (H-Asp-Phe-OMe), the “Solubilization (minutes), Table 1” value (listed as Ex. 8) turned out to be 5.5 min.

As for `COC(=O)[C@H](Cc1ccccc1)NC(=O)[C@@H](N)CC(=O)O` [Example 9, α-L-aspartyl-L-phenylalanine methyl ester] (H-Asp-Phe-OMe), the “Solubilization (minutes), Table 1” value (listed as Ex. 9) is 7.5 min.

Turning to `COC(=O)[C@H](Cc1ccccc1)NC(=O)[C@@H](N)CC(=O)O` [Example 10, α-L-aspartyl-L-phenylalanine methyl ester] (H-Asp-Phe-OMe), the “Solubilization (minutes), Table 1” value (listed as Ex. 10) came to 5.5 min.

Take `COC(=O)[C@H](Cc1ccccc1)NC(=O)[C@@H](N)CC(=O)O` [Example 11, α-L-aspartyl-L-phenylalanine methyl ester] (H-Asp-Phe-OMe): the “time required” value turned out to be 6.5 min.

In the case of `COC(=O)[C@H](Cc1ccccc1)NC(=O)[C@@H](N)CC(=O)O` [Example 12, α-L-aspartyl-L-phenylalanine methyl ester] (H-Asp-Phe-OMe), the “time required” value amounted to 5.5 min.

As to `COC(=O)[C@H](Cc1ccccc1)NC(=O)[C@@H](N)CC(=O)O` [Example 13, α-L-aspartyl-L-phenylalanine methyl ester] (H-Asp-Phe-OMe), the “time required” value was determined as 5.5 min.

As to `COC(=O)[C@H](Cc1ccccc1)NC(=O)[C@@H](N)CC(=O)O` [Example 14, α-L-aspartyl-L-phenylalanine methyl ester] (H-Asp-Phe-OMe), the “time required” value was 6.5 min.

With `COC(=O)[C@H](Cc1ccccc1)NC(=O)[C@@H](N)CC(=O)O` [Example 15, α-L-aspartyl-L-phenylalanine methyl ester] (H-Asp-Phe-OMe), the “time required” value turned out to be 5.5 min.

In the case of `COC(=O)[C@H](Cc1ccccc1)NC(=O)[C@@H](N)CC(=O)O` [Example 16, α-L-aspartyl-L-phenylalanine methyl ester] (H-Asp-Phe-OMe), the “time required” value was at most 5 min.
